From patent US11578013B2, “Nitrification inhibitors” (Lincoln University, priority 2020, dated 2023)

Legend:
nitrification = experiment: Table 1 summary: compounds found to work or not work as nitrification inhibitors, Inhib(%); parameters: concentration or dose not given beside the values; settings: test and rate not given
Experimental: The phenotypic screening involved assessing the nitrification inhibition potency of the selected 5000 compounds against a key ammonia oxidizing bacterium responsible for ammonia oxidation in the soil, Nitrosomonas europaea, in 96-well microtiter plates. N. europaea cells were grown in the presence of an ammonium source, and the potential of putative nitrification inhibitors to inhibit the production of nitrite (NO2) was measured relative to untreated cells.
A summary of selected compounds initially found to either work or not work as nitrification inhibitors is detailed in Table 1 below.

[1] = test system: nitrification in the soil; experiment: Laboratory soil incubation, Templeton sandy loam with synthetic cow urine, nitrate-N
Experimental: A Templeton sandy loam was used in this experiment. 500 g of soil (dry weight basis) was packed into a pottle. 50 mL of synthetic cow urine with an N concentration of 7 g N/L (comprising about 87% urea-N and 13% glycine-N) was applied to the soil (equivalent to 700 kg N/ha on weight basis, assuming bulk density of 1 g/cm^3 in the top 10 cm of soil). The 700 kg N/ha application was used to simulate the urine-N application rate under a typical dairy cow urine patch in a grazed pasture.
Control treatments also added to soil were: • urine alone (50 mL); • DMSO (equivalent to 0.9 mL/500 g soil)+urine (50 mL) to determine the effect of DMSO on nitrification rate; • water alone (50 mL) (simulating areas of the soil where no urine was deposited).
Pottles were covered with lids with breathing holes to allow for gas exchange during incubation. Pottles were incubated at 12° C. Soil moisture content was maintained at field capacity by adjusting on weight basis twice a week.
Soil samples were collected and were then thoroughly mixed and subsamples were extracted in a potassium chloride solution and analysed for mineral-N. Soil moisture content was also determined. Samples were taken at 30 days after the start of incubation. […]

In the case of `C#Cc1ccc(OC)cc1` [4-Ethynylanisole, 1-ethynyl-4-methoxybenzene], the “Inhib(%)” value (nitrification) was 100%, the “nitrate-N concentration in the soil compared with urine alone” value ([1]; Study 1-14, 2 to 20 kg/ha, day 30) was “significantly lower nitrate-N concentrations” and the “soil nitrate-N concentration changes with time” value ([1]; Study 1-14, range of rates 2, 5, 10, 20 kg/ha, days 1, 14, 30) was “significant inhibition of nitrate production”.
